# Assay results published in US20090036518A1, “PHARMACEUTICAL COMPOSITION CONTAINING FLAVONOIDS” (TAIPEI MEDICAL UNIVERSITY, priority 2005, published 2009).
# Where two headings read alike, the source gives them in different places.
# Experiments:
# PDE4H = conditions: cited from earlier work; for PDE4H/PDE4L ratio: literature values [23-26]
# [1] = molecular target: T1, high affinity rolipram binding sites (HARBS) of the PDE4 (PDE4H); experiment: Assay II: replacement of [3H]-rolipram bound on particulate HARBS of whole brain; set-up: species or system guinea pig; conditions: guinea pig whole brain particulates, 2 nM [3H]-rolipram, mean±S.E.M., read-out: PDE4H (EC50) for replacing high-affinity [3H]-rolipram binding
# T1 construct: other: guinea pig whole brain particulates; 2 nM [3H]-r; guinea pig whole brain particul
# Description: (§1) The binding experiments are carried on basis of the methods of Schneider et al and Zhao et al with a small modification. Under a protocol approved by the Animal Care and Use Committee of Taipei Medical University, five male guinea pigs (Hartley), weighing 500-600 g, are anesthetized. The whole brains taken therefrom are homogenized with in 10 volumes of cold medium (pH 6.5) containing 20 mM Bis-tris, 2 mM benzamidine, 2 mM EDTA, 50 mM sodium chloride, 0.1 mM phenylmethanesulfonyl fluoride (PMSF), and 1 mM dithiothreitol. At 4[…], the homogenate is centrifuged at 170 g for 15 min for removing blood vessels and connective tissues, and the supernatant thereof is then re-centrifuged at 40,000 g for 30 min for separating the particulates from the cytosol of cells.
# (§2) The final concentration of [^3H]-rolipram is 2 nM. […] After incubation, the reaction is stopped by transferring the reaction vessel to a bath of crashed ice. Then the reaction mixture is filtered through a punched glass fiber filter (Whatman GF/B) placed in a mini funnel, which is adopted to a 1.5 ml of Eppendorff's tube for collecting the filtrate in the mini centrifuge at 1000 rpm (100 g) for 10 seconds. By the same way (centrifugation), it is further washed with 0.3 ml reaction buffer each for three times. The Whatman GF/B filter is mixed with 2 ml of cocktail and counted by the β-scintillation counter (Backman, Fullerton, Calif., USA) for counting the radioactivity thereof.
# [2] = tested on: high affinity rolipram binding sites (HARBS) of the PDE4 (PDE4H); experiment: as above; set-up: species or system guinea pig; conditions: ratio of HARBS EC50 to PDE4 IC50
# Description: as §1, §2
# PDE4 [3] = experiment: Assay I: inhibition of cyclic nucleotide PDE activity (cAMP hydrolysis by PDE4); type: biochemical; conditions: guinea pig PDE4; 1 μM cAMP substrate; mean±S.E.M.; read-out: PDE4L (IC50) on PDE4 activity
# Description: Under a protocol approved by the Animal Care and Use Committee of Taipei Medical University, five male guinea pigs (Hartley), weighing 500-600 g, are sacrificed. The lungs (15 g) or hearts (4 g) taken therefrom are chopped into small pieces and homogenized with a glass/teflon homogenizer (Glas-Col, Terre Haute, Ind., USA) in 10 volumes of cold medium (pH 6.5) containing 20 mM Bis-tris, 2 mM benzamidine, 2 mM EDTA, 50 mM sodium chloride, 0.1 mM phenylmethanesulfonyl fluoride (PMSF), and 1 mM dithiothreitol. At 4 , the homogenate is centrifuged at 170 g for 15 min, and the supernatant thereof is then re-centrifuged at 40,000 g for 30 min. […] The column is washed with two bed volumes of homogenate buffer to remove unbound material, where the resin beads therein will bind with proteins, such as PDE proteins. Proteins bound to the Q-Sepharose beads are eluted with various concentrations (0.23, 0.34, 0.44, 0.69, and 1.00 M) of NaCl dissolved in homogenate buffer (for each concentration, 40-50 mL elution buffer are applied) at a flow rate of 30 ml/h. Fractions (3 ml each) are collected, and ethylene glycol (EG) is added thereto until a final concentration of 30% (v/v). And then the samples are frozen at […].
# The activities of PDE4 in the homogenate are measured with a two-step procedure according to the method of Thompson and Appleman, using cAMP with [^3H]-cAMP or cGMP with [^3H]-cGMP as substrates. The PDE enzyme prepared (25 μl) with 10 μl inhibitor or the solvents therefor is incubated for 30 min at 37 °C in a total assay buffer, where the final volume of the assay is amounted to 100 μl. In accordance with the features of the PDE isozymes, the assay buffer contains 50 mM Tris/HCl (pH 7.4), 3 mM MgCl2, 1 mM dithiothreitol, and 0.05% BSA, and optionally contains 1 μM cAMP with 0.2 μCi [^3H]-cAMP as a substrate alone or in the presence of 0.1 unit calmodulin with 10 μM CaCl2, or 5 μM cGMP, and 1 μM cGMP with 0.2 μCi [^3,H]-cGMP as another substrate alone or in the presence of 0.1 unit calmodulin with 10 μM CaCl2.
# The PDE enzyme and the inhibitors (or their solvent) therefor are mixed and incubated on ice for 30 min previously, and then mixed with the assay buffer. The assay is initiated by transferring the mixture to a water bath at 37 °C. Following the other 30 min incubation, the reaction is stopped by transferring the reaction vessel to a bath of boiling water for 3 min. After cooling on ice, 20 μl of the 1 mg/ml of Crotalus atrox venom is added to the reaction mixture, and the mixture is incubated at 37 °C for 10 min. The uncatalyzed substrates, such as cAMP, [^3H]-cAMP, cGMP, or [^3H]-cGMP are removed by the addition of 500 μl of a 1-in-1 Tris-HCl (40 mM) buffer suspension of Dowex resin (1×8-200) with incubation on ice for 30 min, since the bindings of the cyclic nucleotides and the resin. Each tube is then centrifuged for 2 min at 6000 rpm (3700 g), and 100 μl of the supernatant is removed and counted by a β-counter for calculating the enzyme (PDEs) activity.
# The dissociation constant of inhibitor binding (Ki) value is determined from the equation of apparent Km as a function of the inhibitor concentration (insert in A and B, respectively). The slope of the equation is equal to the value of […] (where KM is Michaelis constant). The amounts of the total proteins are calculated based on the analytical method reported by Bradford. In FIGS. 1A to 1D, all enzyme activities are shown as nmole of substrate per mg of proteins per minute (nmole/mg/min) hydrolyzed.
# PDE4 [4] = conditions: cited from earlier work
Compound,EC50 [1] [µM],PDE4H/PDE4L ratio (EC50/IC50) [2],IC50 (PDE4 [3]) [µM],further results
"O=C(Nc1c(Cl)cncc1Cl)C(=O)c1cn(Cc2ccc(F)cc2)c2ccc(O)cc12 [AWD-12-281, N-(3,5-dichloro-pyrid-4-yl)-[1-(4-fluorobenzyl)-5-hydroxy-indole-3-yl]-glyo xylic acid amide]",,,,PDE4H/PDE4L ratio (PDE4H): about 11
COc1ccc(-c2coc3cc(O)cc(O)c3c2=O)cc1 [Biochanin A],> 300,>35,8.5 ± 0.1,
COc1ccc(-c2cc(=O)c3c(O)cc(O)cc3o2)cc1O [Diosmetin],,,20.2 ± 2.4,
O=c1c(-c2ccc(O)cc2)coc2cc(O)cc(O)c12 [Genistein],47.8 ± 15.9,,9.5 ± 1.9,"IC50 (PDE4 [4]; reported by Nichols and Morimoto [18], read-out: IC50 for PDE4 inhibition): 5 µM"
"COc1ccc(C2CC(=O)c3c(OC(C)=O)cc(OC(C)=O)cc3O2)cc1OC(C)=O (stereo not drawn) [Hesperetin-5,7,3′-O-triacetate (HTA), Hesperetin-5,7,3′-O-triacetate]",> 300,>21,14.4 ± 1.8,
"COc1cc(OC)c2c(c1)OC(c1ccc(OC)c(OC)c1)CC2=O (stereo not drawn) [Hesperetin-5,7,3′-O-trimethylether]",171 ± 32.9,18,9.4 ± 2.9,
"COc1cc(O)c2c(c1)OC(c1ccc(OC)c(OC)c1)CC2=O (stereo not drawn) [Hesperetin-7,3′-O-dimethylether (HDME), Hesperetin-7,3′-O-dimethylether]",107 ± 39.5,35.5,3 ± 0.9,
COc1ccc(C2CC(=O)c3c(O)cc(O)cc3O2)cc1O (stereo not drawn) [Hesperetin],> 300,,28.2 ± 1.1,
O=c1cc(-c2ccc(O)c(O)c2)oc2cc(O[C@@H]3O[C@H](CO)[C@@H](O)[C@H](O)[C@H]3O)cc(O)c12 [Luteolin-7-glucoside],> 300,>7,,
O=c1c(O)c(-c2cc(O)c(O)c(O)c2)oc2cc(O)cc(O)c12 [Myricetin],> 300,>7.5,39.8 ± 2.1,
COc1cc(O)c2c(=O)c(-c3ccc(O)cc3)coc2c1 [Prunetin],> 300,>4.8,61.9 ± 17.3,
"COc1c(-c2ccc(O)c(O)c2)oc2cc(O)cc(O)c2c1=O [Qercetin-3-O-methylether (3-MQ), Qercetin-3-O-methylether]",17.4 ± 4,0.61,28.5 ± 5.8,
"CC(=O)Oc1cc(OC(C)=O)c2c(=O)c(OC(C)=O)c(-c3ccc(OC(C)=O)c(OC(C)=O)c3)oc2c1 [Quercetin-3,5,7,3′,4′-O-pentaacetate]",82.8 ± 22.3,4.48,18.5 ± 4.6,
"COc1cc(OC)c2c(=O)c(OC)c(-c3ccc(OC)c(OC)c3)oc2c1 [Quercetin-3,5,7,3′,4′-O-petamethylether]",56 ± 22.7,11,5.1 ± 1.4,
"COc1cc(O)c2c(=O)c(OC)c(-c3ccc(OC)c(OC)c3)oc2c1 [Quercetin-3,7,3′,4′-O-tetramethylether]",> 300,,> 100,
"COc1cc(O)c2c(=O)c(OC)c(-c3ccc(OC)c(O)c3)oc2c1 [Quercetin-3,7,4′-O-trimethylether]",> 300,>19,15.8 ± 4.4,
"COc1c(-c2ccc(OC(C)=O)c(OC(C)=O)c2)oc2cc(OC(C)=O)cc(OC(C)=O)c2c1=O [Quercetin-3-O-methyl-5,7,3′,4′-O-tetraacetate]",3.9 ± 1.4,1,3.9 ± 0.6,
O=c1c(O)c(-c2ccc(O)c(O)c2)oc2cc(O)cc(O)c12 [Quercetin],> 300,>30,9.9 ± 2.5,
"CCCCOc1cc(CC2CNC(=O)N2)ccc1OC (stereo not drawn) [Ro 20-1724, reference compound]",,,8.7 ± 1.9,EC50 ([1]; reference drugs): 0.087 ± 0.029 µM
"COc1ccc(C2CNC(=O)C2)cc1OC1CCCC1 (stereo not drawn) [Rolipram, reference compound]",,[…],[…],"EC50 ([1]; reference drugs): 0.0052 ± 0.0019 µM; IC50 (PDE4 [4]; literature [23], read-out: IC50 for binding PDE4L): […]; EC50 (PDE4H; literature [23], read-out: EC50 for binding PDE4H): […]; PDE4H/PDE4L ratio (PDE4H): […]"
COc1ccc([C@]2(C#N)CC[C@@H](C(=O)O)CC2)cc1OC1CCCC1 [cilomilast],,,,PDE4H/PDE4L ratio (PDE4H): about 1
O=C(Nc1c(Cl)cncc1Cl)c1ccc(OC(F)F)c(OCC2CC2)c1 [roflumilast],,,,PDE4H/PDE4L ratio (PDE4H): 3
